Laboratory results from ChEMBL document CHEMBL1201862, “PubChem BioAssay data set” (2004).
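Five compound concentrations were applied to cells in 96-well plates for 48 hours; endpoints were derived by simple linear interpolation of the resulting dose-response curve. GI50: concentration for 50% inhibition of growth.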 Active and inactive are the calls of the source. Rule as the data show it: active = GI50 up to about 1.1 µM and inactive = higher.

Tests used:
Assay in all cases: growth of human tumour cells (NCI), 48 h
HOP-62 = test system: HOP-62
HT-29 = test system: HT-29
SNB-75 = test system: SNB-75
M14 = test system: M14
OVCAR-4 = test system: OVCAR-4
OVCAR-3 = test system: OVCAR-3
SR = test system: SR
NCI-H460 = test system: NCI-H460
OVCAR-5 = test system: OVCAR-5
MOLT-4 = test system: MOLT-4
SW-620 = test system: SW-620
SK-MEL-28 = test system: SK-MEL-28
TK-10 = test system: TK-10
IGROV-1 = test system: IGROV-1
MDA-MB-231 = test system: MDA-MB-231
OVCAR-8 = test system: OVCAR-8
UACC-62 = test system: UACC-62
HCC 2998 = test system: HCC 2998
COLO 205 = test system: COLO 205
CCRF-CEM = test system: CCRF-CEM

Measured: GI50

COC(=O)c1cc(O)nc(O)n1
inactive: HOP-62 > 100 µM | HT-29 > 100 µM | SNB-75 > 100 µM | M14 > 100 µM | OVCAR-4 > 100 µM | OVCAR-3 > 100 µM | SR > 100 µM | NCI-H460 > 100 µM | OVCAR-5 > 100 µM | MOLT-4 > 100 µM | SW-620 > 100 µM | SK-MEL-28 > 100 µM | TK-10 > 100 µM | IGROV-1 > 100 µM | MDA-MB-231 > 100 µM | OVCAR-8 > 100 µM | UACC-62 > 100 µM

CN(C)CCNc1ncnc2[nH]c(-c3ccc4ccccc4c3)nc12
inactive: HOP-62 > 100 µM | HT-29 > 100 µM | M14 > 100 µM | OVCAR-4 > 100 µM | HCC 2998 > 100 µM | OVCAR-3 > 100 µM | SR > 100 µM | COLO 205 > 100 µM | CCRF-CEM > 100 µM | NCI-H460 > 100 µM | OVCAR-5 > 100 µM | MOLT-4 > 100 µM | SW-620 > 100 µM | SK-MEL-28 > 100 µM | TK-10 > 100 µM | IGROV-1 > 100 µM | MDA-MB-231 > 100 µM | OVCAR-8 > 100 µM | UACC-62 > 100 µM

COc1ccc2c(c1)c1c(n2CCN2CCOCC2)-c2cccc(OC)c2CC1
inactive: HOP-62 45.6 µM | HT-29 17.1 µM | M14 26.5 µM | OVCAR-4 > 100 µM | HCC 2998 26.6 µM | OVCAR-3 52.7 µM | SR 10 µM | COLO 205 15.2 µM | CCRF-CEM 18.7 µM | NCI-H460 38.9 µM | OVCAR-5 55.2 µM | MOLT-4 23.2 µM | SW-620 36.8 µM | SK-MEL-28 54.1 µM | TK-10 44.6 µM | IGROV-1 43.1 µM | MDA-MB-231 27.6 µM | OVCAR-8 46.8 µM | UACC-62 29.6 µM

CCCCOC(=O)Nc1ccc(S(=O)(=O)Nc2c(Cl)cccc2Cl)cc1
inactive: HOP-62 49 µM | HT-29 14.5 µM | M14 43 µM | OVCAR-4 12.1 µM | HCC 2998 23.9 µM | OVCAR-3 26.3 µM | SR 21.4 µM | COLO 205 16.1 µM | CCRF-CEM 33.6 µM | NCI-H460 31.1 µM | OVCAR-5 42 µM | MOLT-4 24.3 µM | SW-620 24.4 µM | SK-MEL-28 24.4 µM | TK-10 36.6 µM | IGROV-1 30.4 µM | MDA-MB-231 25.1 µM | OVCAR-8 22.3 µM | UACC-62 21.2 µM
